Laboratory results taken from US20230285399A1, “Compound for the treatment and prophylaxis of a lipofuscin-associated disease and/or a disease associated with aged oxidized melanin” (EBERHARD KARLS UNIVERSITAET TUEBINGEN MEDIZINISCHE FAKULTAET, priority 2020, published 2023).
Entries after “also recorded” stand apart in the source; their conditions may differ.

Key:
pigmented Abca^4−/− mice [1] = conditions: mouse, in vivo
function of the retina = conditions: mouse, in vivo
pigmented Abca^4−/− mice [2] = assay: Removal of lipofuscin from RPE with SIN-1, fluorescence microscopy (SW-AF, NIR-AF) of semi-thin eye sections; assay type: in vivo
Method: Pigmented WT mice (12952), pigmented Abca^4-/- mice (12954/SvJae-Abca4[…] albino Abca^4-/- mice^(BALB/c-Abca4tm1Ght) (Stargardt mice) were used in this work. WT mice were purchased from Harlan Laboratories ([…], UK), the knock-out strains were bred in the inventor's in-house facility. Light cycling was 12 h light (approximately 50 lx in cages)/12 h dark, food and water were available ad libitum. Animals were anesthetized by i.p. injection of a mix of fentanyl (0.05 mg/kg body weight), midazolam (5.0 mg/kg body weight) and medetomidine (0.50 mg/kg body weight). […] The mice were 2 years old. The left eyes remained untreated as controls. The mice were killed 48 hours after the injections and the eyes were […]. Mouse eyes were fixed, embedded in epon resin and sectioned according to standard procedures. For fluorescence analysis, post-fixation and staining with heavy metals was omitted. […] Filter sets were a custom made lipofuscin filter set (excitation 370/36 nm, emission 575/15, 400 nm beam splitter) for short wavelength-autofluorescence (SW-AF) and a commercial Cy7 filter set (excitation 708/75 nm, emission 809/81 nm, 757 nm beam splitter) for NIR-AF (Near infrared AF), respectively. The lipofuscin filter set is designed to fit the reported excitation and emission maximums for lipofuscin. Binning x2 was applied for all images and acquisition times, as well as microscope and software settings were held constant for any set of samples to allow comparison of fluorescence intensities. If indicated, images with low AF intensities were post-processed with the Auto adjust colors function of the […] software to allow the localization of weak AF signals. This function enhances the contrast by redefining the darkest pixel as pure black and the brightest pixel as pure white in the histogram on a channel-by-channel basis. Fluorescence intensities were determined using Fiji software. Regions of interest were determined in fluorescence and BF images using the default threshold, and area and integrated optical density (IOD) of the region of interest were measured. […] Student's t-test with JMP 13 software (SAS, Cary, NC, USA) was used for statistical analysis. P<0·05 was considered statistically significant.

albino Abca^4−/− mice [3] = assay: Removal of lipofuscin from RPE with SIN-1, fluorescence microscopy (SW-AF) of semi-thin eye sections; assay type: in vivo; conditions: 130 μg SIN-1 into the right eye, 48 hours, vs untreated eyes
Method: Pigmented WT mice (12952), pigmented Abca^4-/- mice (12954/SvJae-Abca4[…] albino Abca^4-/- mice^(BALB/c-Abca4tm1Ght) (Stargardt mice) were used in this work. WT mice were purchased from Harlan Laboratories ([…], UK), the knock-out strains were bred in the inventor's in-house facility. Light cycling was 12 h light (approximately 50 lx in cages)/12 h dark, food and water were available ad libitum. Animals were anesthetized by i.p. injection of a mix of fentanyl (0.05 mg/kg body weight), midazolam (5.0 mg/kg body weight) and medetomidine (0.50 mg/kg body weight). […] The mice were 2 years old. The left eyes remained untreated as controls. The mice were killed 48 hours after the injections and the eyes were […]. Mouse eyes were fixed, embedded in epon resin and sectioned according to standard procedures. For fluorescence analysis, post-fixation and staining with heavy metals was omitted. […] Binning x2 was applied for all images and acquisition times, as well as microscope and software settings were held constant for any set of samples to allow comparison of fluorescence intensities. […] Fluorescence intensities were determined using Fiji software. Regions of interest were determined in fluorescence and BF images using the default threshold, and area and integrated optical density (IOD) of the region of interest were measured. […]

pigmented Abca^4−/− mice [4] = assay: Combination of SIN-1 with riboflavin, quantification of fluorescent lipofuscin granules; assay type: in vivo; conditions: 130 μg SIN-1 alone or with 80 μg Riboflavin, intravitreal, 48 hours; 100% is stated as locally
albino Abca^4−/− mice [5] = assay: Analysis of degradation products from lipofuscin (bisretinoids) after SIN-1 by HPLC; assay type: in vivo; conditions: 130 μg SIN-1 into the right eye, 48 hours, 6 month old albino mice
Method: (§1) Seven albino and 6 pigmented mice were used. The left eyes remained untreated as control. After 48 hours the eyes from the Abca^4-/- mice were enucleated, immediately snap-frozen and stored at -80° C. for further processing. All the tissue preparation was made under dim red light and bisretinoids were extracted from the whole eyes and analyzed by HPLC following published protocols (Radu et al. 2004; Fang et al. 2020). Data were presented as picomoles per eye for A2E, iso-A2E, Total A2E or milli-absorbance (mAU) per eye for the other bisretinoids: […], dihydro-A2PE (A2PE-H2), and all-trans-RAL-dimer PE conjugates (at-RAL dimer-PE) as described (Radu et al. 2004).

pigmented Abca^4−/− mice [6] = assay: as above; assay type: in vivo; conditions: 130 μg SIN-1 into the right eye, 48 hours, 6 month old mice, whole eyes; stated for all mice
Method: as §1

[7] = SIN-1 treated eye vs untreated eye of the same mouse

Row | SMILES | fluorescence of lipofuscin (fluorescence intensity, arbitrary units, FIG. 3) (pigmented Abca^4−/− mice [1]) | reduction of the amount of fluorescent lipofuscin granules (pigmented Abca^4−/− mice [1]) [%] | ERG responses, treated vs untreated eye (function of the retina) | number of lipofuscin granules in RPE cell layer under the fluorescence microscope (FIG. 4) (pigmented Abca^4−/− mice [1]) | lipofuscin content in the retinal pigment epithelium (RPE), recognized by the loss of SW-AF (pigmented Abca^4−/− mice [2]; 130 μg SIN-1 into the right eye, 48 hours, mean of 5 eyes vs 5 untreated eyes, mice 2 years old) | NIR-AF fluorescence of the melanosomes (RPE) (pigmented Abca^4−/− mice [2]; 130 μg SIN-1 into the right eye, 48 hours, vs untreated eye) | NIR-AF in the melanosomes of the choroidal melanocytes (pigmented Abca^4−/− mice [2]; [7]) | number of lipofuscin granules in SW-AF image of semi thin sections (pigmented Abca^4−/− mice [2]; [7]) | fluorescence of lipofuscin (SW-AF) (albino Abca^4−/− mice [3]) | removal of fluorescent lipofuscin granules from the RPE cells (pigmented Abca^4−/− mice [4]) [%] | enhancement of lipofuscin metabolites in albino mice compared with pigmented mice (albino Abca^4−/− mice [5]) | amount of degradation products of lipofuscin (A2E, iso-A2E, Total A2E, A2PE, A2PE-H2, at-RAL dimer-PE) (pigmented Abca^4−/− mice [6])
1 | O=[N+]([O-])O[C@@H]1CO[C@H]2[C@@H]1OC[C@@H]2O [IS5, Isosorbide mononitrate] | removed the fluorescence of lipofuscin | 77 | no difference between the treated and the untreated eyes | – | – | – | – | – | – | – | – | –
2 | O=[N+]([O-])OC1COC2C(O[N+](=O)[O-])COC12 (centres unmarked) [Isoket, 3,6-bisnitrooxyhexahydrofuro[3,2-b]-furan] | removed the fluorescence of lipofuscin | – | no difference between the treated and the untreated eyes | reduced the number of lipofuscin granules clearly | – | – | – | – | – | – | – | –
3 | N=c1c[n+](N2CCOCC2)[n-]o1 [SIN-1, 3-morpholinosydnonimine] | – | – | – | – | significant (p<0.05) reduction | reduced but not significant (p>0.05); also recorded: somewhat diminished | seems to be not effected | reduced in number | no effect | 75 | much lesser | enhanced the amount of the degradation products of lipofuscin significantly
